Test results: ChEMBL document CHEMBL1153221, “The identification of structurally novel, selective, orally bioavailable positive modulators of mGluR2” (Bioorg Med Chem Lett, 2010)
Active and inactive are the calls of the source. No cut-off for these calls is given here.

Tests used:
[1] = biological target: T1, Metabotropic glutamate receptor 2 (Homo sapiens, UniProt Q14416); assay: Positive modulation of human mGluR2 expressed in CHO cells co-expressing Ga16 G-protein assessed as glutamate-induced response by FLIPR assay; assay type: cell-based
Target sequence in this assay (Q14416 whole entry): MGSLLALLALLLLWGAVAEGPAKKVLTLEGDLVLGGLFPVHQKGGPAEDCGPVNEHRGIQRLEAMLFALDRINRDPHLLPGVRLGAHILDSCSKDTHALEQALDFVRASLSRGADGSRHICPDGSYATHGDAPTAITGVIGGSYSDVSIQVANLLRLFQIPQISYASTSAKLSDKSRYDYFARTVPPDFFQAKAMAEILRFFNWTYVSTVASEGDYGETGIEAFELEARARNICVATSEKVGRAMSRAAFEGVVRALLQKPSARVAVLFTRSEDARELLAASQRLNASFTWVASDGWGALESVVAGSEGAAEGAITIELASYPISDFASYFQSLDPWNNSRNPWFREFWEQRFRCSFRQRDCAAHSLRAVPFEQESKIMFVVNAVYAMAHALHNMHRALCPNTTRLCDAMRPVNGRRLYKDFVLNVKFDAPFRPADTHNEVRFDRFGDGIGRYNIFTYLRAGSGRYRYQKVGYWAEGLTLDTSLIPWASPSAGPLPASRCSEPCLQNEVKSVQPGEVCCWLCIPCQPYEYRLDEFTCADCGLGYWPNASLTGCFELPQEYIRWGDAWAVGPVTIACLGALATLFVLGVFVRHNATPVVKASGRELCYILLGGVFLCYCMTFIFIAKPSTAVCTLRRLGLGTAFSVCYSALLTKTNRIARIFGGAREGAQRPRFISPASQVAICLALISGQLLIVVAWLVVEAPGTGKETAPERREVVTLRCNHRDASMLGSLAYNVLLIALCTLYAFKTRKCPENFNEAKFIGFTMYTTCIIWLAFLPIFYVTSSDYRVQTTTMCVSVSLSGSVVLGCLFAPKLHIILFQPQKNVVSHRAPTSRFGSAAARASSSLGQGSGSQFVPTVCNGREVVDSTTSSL

[2] = biological target: T1, Metabotropic glutamate receptor 2; assay: Positive modulation of human mGluR2 expressed in CHO cells co-expressing Ga16 G-protein assessed as glutamate-induced response by FLIPR assay relative to glutamate; assay type: cell-based
D(4) dopamine receptor = biological target: T2, D(4) dopamine receptor (Homo sapiens, UniProt P21917); assay: Antagonist activity at human D4 receptor expressed in HEK293 cells co-expressing Gqo5 G-protein by FLIPR assay; assay type: functional, cell-based
T2 sequence (P21917 whole entry): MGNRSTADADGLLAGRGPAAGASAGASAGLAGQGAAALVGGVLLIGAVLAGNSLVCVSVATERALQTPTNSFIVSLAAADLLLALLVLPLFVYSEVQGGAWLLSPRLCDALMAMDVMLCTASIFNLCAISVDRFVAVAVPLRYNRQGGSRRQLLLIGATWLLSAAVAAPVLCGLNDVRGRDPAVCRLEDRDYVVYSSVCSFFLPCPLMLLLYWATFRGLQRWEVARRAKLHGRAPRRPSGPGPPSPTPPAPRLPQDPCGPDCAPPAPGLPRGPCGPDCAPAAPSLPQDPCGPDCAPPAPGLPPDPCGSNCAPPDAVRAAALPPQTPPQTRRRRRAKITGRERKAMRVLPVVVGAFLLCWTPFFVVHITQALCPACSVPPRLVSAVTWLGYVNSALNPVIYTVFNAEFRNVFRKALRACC

[3] = biological target: T1, Metabotropic glutamate receptor 2; assay: Agonist activity at human mGluR2 expressed in CHO cells co-expressing Ga16 G-protein assessed as glutamate-induced response by FLIPR assay; assay type: functional, cell-based
Target sequence in this assay (Q14416 whole entry): as the sequence (Q14416 whole entry) above

D(2) dopamine receptor = D(2) dopamine receptor (Homo sapiens, UniProt P14416); assay: Antagonist activity at human D2 receptor expressed in CHO cells co-expressing G0 by [35S]GTPgammaS binding assay; assay type: functional, cell-based
D(3) dopamine receptor = D(3) dopamine receptor (Homo sapiens, UniProt P35462); assay: Antagonist activity at human D3 receptor expressed in CHO cells co-expressing G0 by [35S]GTPgammaS binding assay; assay type: functional, cell-based
[4] = biological target: T3, Metabotropic glutamate receptor 5 (Homo sapiens, UniProt P41594); assay: Positive modulation of mGluR5
[5] = biological target: T3, Metabotropic glutamate receptor 5; assay: Agonist activity at mGluR5; assay type: functional
[6] = biological target: T4, Metabotropic glutamate receptor 1 (Homo sapiens, UniProt Q13255); assay: Antagonist activity at mGluR1; assay type: functional
[7] = biological target: Metabotropic glutamate receptor 4 (Homo sapiens) (UniProt Q14833); assay: Antagonist activity at mGluR4; assay type: functional
[8] = biological target: Metabotropic glutamate receptor 4 (Homo sapiens) (UniProt Q14833); assay: Agonist activity at mGluR4; assay type: functional
[9] = biological target: T4, Metabotropic glutamate receptor 1; assay: Agonist activity at mGluR1; assay type: functional
[10] = biological target: T4, Metabotropic glutamate receptor 1; assay: Positive modulation of mGluR1
[11] = biological target: T3, Metabotropic glutamate receptor 5; assay: Antagonist activity at mGluR5; assay type: functional
[12] = biological target: Metabotropic glutamate receptor 4 (Homo sapiens) (UniProt Q14833); assay: Positive modulation of mGluR4

T4 sequence (Q13255 19-1194 limits assumed): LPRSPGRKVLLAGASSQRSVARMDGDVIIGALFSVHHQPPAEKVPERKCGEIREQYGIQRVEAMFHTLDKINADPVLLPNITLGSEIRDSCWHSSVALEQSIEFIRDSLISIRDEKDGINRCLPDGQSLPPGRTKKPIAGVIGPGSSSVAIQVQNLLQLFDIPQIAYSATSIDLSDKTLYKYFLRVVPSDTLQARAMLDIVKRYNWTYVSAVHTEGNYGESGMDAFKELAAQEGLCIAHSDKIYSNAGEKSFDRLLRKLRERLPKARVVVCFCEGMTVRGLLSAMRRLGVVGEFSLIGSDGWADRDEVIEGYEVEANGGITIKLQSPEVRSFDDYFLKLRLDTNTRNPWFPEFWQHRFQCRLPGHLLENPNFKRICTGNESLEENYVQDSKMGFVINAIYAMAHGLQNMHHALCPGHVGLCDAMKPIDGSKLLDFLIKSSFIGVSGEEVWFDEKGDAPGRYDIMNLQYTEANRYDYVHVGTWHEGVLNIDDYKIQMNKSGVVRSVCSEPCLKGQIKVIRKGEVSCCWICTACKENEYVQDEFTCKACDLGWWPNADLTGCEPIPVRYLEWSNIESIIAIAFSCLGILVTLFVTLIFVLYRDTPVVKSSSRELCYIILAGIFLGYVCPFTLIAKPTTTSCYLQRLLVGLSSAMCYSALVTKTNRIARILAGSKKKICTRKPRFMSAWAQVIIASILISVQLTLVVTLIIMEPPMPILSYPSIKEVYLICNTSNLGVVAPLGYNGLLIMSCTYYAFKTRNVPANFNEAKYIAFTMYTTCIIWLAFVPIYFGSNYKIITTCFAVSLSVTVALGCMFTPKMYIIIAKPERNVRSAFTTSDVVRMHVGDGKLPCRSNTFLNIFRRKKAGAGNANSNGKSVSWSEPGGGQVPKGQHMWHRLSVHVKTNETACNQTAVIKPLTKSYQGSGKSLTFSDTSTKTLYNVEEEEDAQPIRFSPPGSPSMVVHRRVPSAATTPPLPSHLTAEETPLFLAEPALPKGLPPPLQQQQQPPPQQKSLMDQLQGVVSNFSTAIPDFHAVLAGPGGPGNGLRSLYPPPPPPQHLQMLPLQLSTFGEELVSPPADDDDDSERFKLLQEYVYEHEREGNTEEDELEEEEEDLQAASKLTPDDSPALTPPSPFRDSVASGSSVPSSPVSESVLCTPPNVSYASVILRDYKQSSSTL
D(3) dopamine receptor, sequence (P35462 whole entry): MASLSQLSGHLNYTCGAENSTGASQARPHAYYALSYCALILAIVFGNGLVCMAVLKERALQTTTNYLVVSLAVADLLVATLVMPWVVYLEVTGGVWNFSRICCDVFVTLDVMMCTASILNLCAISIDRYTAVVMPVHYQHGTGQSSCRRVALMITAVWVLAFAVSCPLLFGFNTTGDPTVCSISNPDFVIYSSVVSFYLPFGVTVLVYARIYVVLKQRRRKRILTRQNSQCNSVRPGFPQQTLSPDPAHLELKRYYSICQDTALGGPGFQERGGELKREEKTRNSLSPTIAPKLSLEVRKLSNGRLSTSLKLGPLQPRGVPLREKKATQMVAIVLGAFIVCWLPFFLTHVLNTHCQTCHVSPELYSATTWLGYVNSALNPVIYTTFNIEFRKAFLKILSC
Metabotropic glutamate receptor 4 (Homo sapiens), sequence (Q14833 whole entry): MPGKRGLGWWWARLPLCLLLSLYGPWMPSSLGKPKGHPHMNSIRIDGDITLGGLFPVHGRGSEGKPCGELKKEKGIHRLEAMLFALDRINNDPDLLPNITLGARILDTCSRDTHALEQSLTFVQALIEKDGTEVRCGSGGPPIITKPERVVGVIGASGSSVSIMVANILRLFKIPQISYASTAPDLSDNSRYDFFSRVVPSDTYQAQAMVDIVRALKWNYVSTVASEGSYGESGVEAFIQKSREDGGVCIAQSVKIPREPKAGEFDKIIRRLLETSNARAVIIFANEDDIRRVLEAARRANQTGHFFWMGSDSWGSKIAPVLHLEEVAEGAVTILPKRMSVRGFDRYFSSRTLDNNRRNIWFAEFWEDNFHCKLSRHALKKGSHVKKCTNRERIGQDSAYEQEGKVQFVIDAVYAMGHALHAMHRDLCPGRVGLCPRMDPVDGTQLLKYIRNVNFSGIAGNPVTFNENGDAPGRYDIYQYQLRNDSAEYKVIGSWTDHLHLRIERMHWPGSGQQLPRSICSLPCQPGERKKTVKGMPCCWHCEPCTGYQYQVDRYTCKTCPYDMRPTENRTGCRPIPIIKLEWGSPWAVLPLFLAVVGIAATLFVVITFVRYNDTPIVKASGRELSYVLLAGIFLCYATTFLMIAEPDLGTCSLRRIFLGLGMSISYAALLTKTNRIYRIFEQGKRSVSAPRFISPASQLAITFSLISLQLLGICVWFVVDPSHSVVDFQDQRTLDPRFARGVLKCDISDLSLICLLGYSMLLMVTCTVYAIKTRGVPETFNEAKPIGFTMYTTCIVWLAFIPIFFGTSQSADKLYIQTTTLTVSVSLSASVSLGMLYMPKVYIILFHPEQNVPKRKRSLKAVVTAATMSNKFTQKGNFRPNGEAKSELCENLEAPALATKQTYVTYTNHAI
T3 sequence (P41594 21-1212 limits assumed): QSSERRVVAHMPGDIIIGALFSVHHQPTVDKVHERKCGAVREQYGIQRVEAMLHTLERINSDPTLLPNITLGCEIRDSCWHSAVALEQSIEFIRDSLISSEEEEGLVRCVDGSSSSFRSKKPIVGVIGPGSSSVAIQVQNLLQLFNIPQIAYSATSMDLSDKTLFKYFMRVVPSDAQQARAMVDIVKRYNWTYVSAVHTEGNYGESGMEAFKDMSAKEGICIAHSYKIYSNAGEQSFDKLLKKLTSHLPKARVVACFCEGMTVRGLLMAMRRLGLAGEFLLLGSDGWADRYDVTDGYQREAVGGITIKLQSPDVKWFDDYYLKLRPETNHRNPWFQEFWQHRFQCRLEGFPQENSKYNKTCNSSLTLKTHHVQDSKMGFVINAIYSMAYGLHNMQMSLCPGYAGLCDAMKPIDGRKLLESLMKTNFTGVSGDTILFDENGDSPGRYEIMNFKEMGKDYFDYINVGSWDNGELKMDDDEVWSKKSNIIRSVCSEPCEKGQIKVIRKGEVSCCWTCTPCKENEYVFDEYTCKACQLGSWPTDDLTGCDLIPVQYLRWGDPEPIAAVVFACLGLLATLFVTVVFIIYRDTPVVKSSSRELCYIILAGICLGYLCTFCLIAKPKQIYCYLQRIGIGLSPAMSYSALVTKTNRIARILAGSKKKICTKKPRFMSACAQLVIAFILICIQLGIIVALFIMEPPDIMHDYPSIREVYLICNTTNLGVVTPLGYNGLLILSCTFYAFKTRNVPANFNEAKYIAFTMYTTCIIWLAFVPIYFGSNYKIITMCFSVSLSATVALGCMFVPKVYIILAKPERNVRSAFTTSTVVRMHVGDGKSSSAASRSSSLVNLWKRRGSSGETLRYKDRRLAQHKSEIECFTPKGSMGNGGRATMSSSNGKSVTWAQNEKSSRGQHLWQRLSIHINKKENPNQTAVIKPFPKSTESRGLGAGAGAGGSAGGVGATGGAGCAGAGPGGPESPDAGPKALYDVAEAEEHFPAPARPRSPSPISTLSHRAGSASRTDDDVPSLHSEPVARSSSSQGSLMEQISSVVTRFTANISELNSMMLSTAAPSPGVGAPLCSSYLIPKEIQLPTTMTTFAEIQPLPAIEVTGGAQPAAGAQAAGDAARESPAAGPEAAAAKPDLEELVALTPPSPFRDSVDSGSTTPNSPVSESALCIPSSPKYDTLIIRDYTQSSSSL
D(2) dopamine receptor, sequence (P14416 whole entry): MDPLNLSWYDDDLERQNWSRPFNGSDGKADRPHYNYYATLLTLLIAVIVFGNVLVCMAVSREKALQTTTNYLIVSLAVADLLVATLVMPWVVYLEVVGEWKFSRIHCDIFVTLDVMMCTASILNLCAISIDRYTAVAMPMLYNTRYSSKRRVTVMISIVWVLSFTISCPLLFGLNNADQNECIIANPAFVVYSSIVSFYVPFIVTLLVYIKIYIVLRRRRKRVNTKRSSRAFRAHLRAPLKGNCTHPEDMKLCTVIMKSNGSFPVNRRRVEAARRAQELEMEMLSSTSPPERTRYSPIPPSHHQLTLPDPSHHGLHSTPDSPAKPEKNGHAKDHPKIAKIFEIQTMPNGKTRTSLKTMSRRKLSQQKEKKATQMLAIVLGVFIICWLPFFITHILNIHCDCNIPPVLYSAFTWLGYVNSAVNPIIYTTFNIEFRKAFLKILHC

## Cn1c(CN2CCN(c3ncc(C(F)(F)F)cc3Cl)CC2)nc2cc(F)ccc21
[1]
  EC50: 200 nM

## Clc1cnc(N2CCN(Cc3nc4ccccc4n3Cc3ccccc3)CC2)nc1
[1]
  EC50: 126 nM

## FC(F)(F)c1cnc(N2CCN(Cc3nc4ccccc4n3Cc3ccccc3)CC2)c(Cl)c1
[1]
  EC50: 126 nM

## COCCn1c(CN2CCN(c3ncc(C(F)(F)F)cc3Cl)CC2)nc2ccccc21
[1]
  EC50: 158 nM

## Cn1c(CN2CCN(c3ccccn3)CC2)nc2ccccc21
[2]
  Emax: 100%
[1]
  EC50: 15800 nM

## Cn1c(CN2CCC(c3ccc(C(F)(F)F)cc3)CC2)nc2ccccc21
D(4) dopamine receptor
  Ki: 126 nM
[3]
  EC50: 2000 nM
[2]
  Emax: 110%
D(2) dopamine receptor
  Ki: 251 nM
[1]
  EC50: 100 nM
D(3) dopamine receptor
  Ki: > 10000 nM

## Cn1c(CN2CCN(c3ncc(C(F)(F)F)cc3Cl)CC2)nc2ccccc21
D(4) dopamine receptor
  Ki: 631 nM
[3]
  EC50: 2000 nM
[4]
  Activity: inactive
[5]
  Activity: inactive
[2]
  Emax: 71%
[6]
  Activity: inactive
D(2) dopamine receptor
  Ki: 5010 nM
[7]
  Activity: inactive
[8]
  Activity: inactive
[1]
  EC50: 79.4 nM
[9]
  Activity: inactive
D(3) dopamine receptor
  Ki: 5010 nM
[10]
  Activity: inactive
[11]
  Activity: inactive
[12]
  Activity: inactive

## Cn1c(CN2CCC(c3ccccc3)CC2)nc2ccccc21
D(4) dopamine receptor
  Ki: 100 nM
[3]
  EC50: 6310 nM
[2]
  Emax: 89%
D(2) dopamine receptor
  Ki: 25.1 nM
[1]
  EC50: 200 nM
D(3) dopamine receptor
  Ki: 126 nM

## Cn1c(CN2CCN(c3ccc(Cl)cc3)CC2)nc2ccccc21
D(4) dopamine receptor
  Ki: 126 nM
[3]
  EC50: > 15800 nM
D(2) dopamine receptor
  Ki: > 10000 nM
[1]
  EC50: 794 nM
D(3) dopamine receptor
  Ki: > 10000 nM

## Cn1c(CN2CCC(c3ncc(C(F)(F)F)cc3Cl)CC2)nc2ccccc21
D(4) dopamine receptor
  Ki: 2510 nM
[3]
  EC50: 631 nM
[2]
  Emax: 70%
D(2) dopamine receptor
  Ki: 794 nM
[1]
  EC50: 39.8 nM
D(3) dopamine receptor
  Ki: 1580 nM

## Cn1c(CN2CCN(c3ncc(Cl)cn3)CC2)nc2ccccc21
D(4) dopamine receptor
  Ki: 2510 nM
[3]
  EC50: 1260 nM
[4]
  Activity: inactive
[5]
  Activity: inactive
[2]
  Emax: 69%
[6]
  Activity: inactive
D(2) dopamine receptor
  Ki: > 10000 nM
[7]
  Activity: inactive
[8]
  Activity: inactive
[1]
  EC50: 126 nM
[9]
  Activity: inactive
D(3) dopamine receptor
  Ki: > 10000 nM
[10]
  Activity: inactive
[11]
  Activity: inactive
[12]
  Activity: inactive

## CCCn1c(CN2CCN(c3ncc(C(F)(F)F)cc3Cl)CC2)nc2ccccc21
[1]
  EC50: 2510 nM

## CCCn1c(CN2CCN(c3ncc(Cl)cn3)CC2)nc2ccccc21
[1]
  EC50: 794 nM

## Cn1c(CN2CCN(c3ccccc3)CC2)nc2ccccc21
[3]
  EC50: > 15800 nM
[2]
  Emax: 100%
[1]
  EC50: 5010 nM

## Cn1c(CN2CCC(c3ccccc3C(F)(F)F)CC2)nc2ccccc21
[3]
  EC50: 6310 nM
[2]
  Emax: 94%
D(2) dopamine receptor
  Ki: > 3160 nM
[1]
  EC50: 316 nM
D(3) dopamine receptor
  Ki: 501 nM

## CCn1c(CN2CCN(c3ncc(C(F)(F)F)cc3Cl)CC2)nc2ccccc21
[1]
  EC50: 63.1 nM

## Cn1c(CN2CCC(c3nc4ccccc4s3)CC2)nc2ccccc21
D(4) dopamine receptor
  Ki: 7.94 nM
[3]
  EC50: 3160 nM
[2]
  Emax: 76%
D(2) dopamine receptor
  Ki: 398 nM
[1]
  EC50: 158 nM
D(3) dopamine receptor
  Ki: > 10000 nM

## Cn1c(CN2CCN(c3ncc(C(F)(F)F)cc3Cl)CC2)nc2cc(C#N)ccc21
[1]
  EC50: 50.1 nM

## CCn1c(CN2CCN(c3ncc(Cl)cn3)CC2)nc2ccccc21
[1]
  EC50: 158 nM
